Source: paper PMC7252619 (PLoS ONE, 2020)
Read-outs that look alike come from different tables or passages of the source. Blank lines part the entries; values can stand above or below the compound they belong to.

Columns and labels:
Assay in all cases: Kinase activity test (ReactionBiology), % enzyme activity relative to DMSO;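 as to remaining activity: FDA-approved drugs chosen by structure-based repositioning, each screened at 10 or 1 µM for kinase activity, expressed as percent of DMSO controls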
Type in all cases: biochemical
DAPK1 = biological target: T1, DAPK1 (Homo sapiens, UniProt P53355); conditions: DAPK1; for % Enzyme Activity (relative to DMSO controls), Data 1: replicate Data 1; for % Enzyme Activity (relative to DMSO controls), Data 2: replicate Data 2
T1 construct: purchased ReactionBiology
T1 sequence (P53355 whole entry): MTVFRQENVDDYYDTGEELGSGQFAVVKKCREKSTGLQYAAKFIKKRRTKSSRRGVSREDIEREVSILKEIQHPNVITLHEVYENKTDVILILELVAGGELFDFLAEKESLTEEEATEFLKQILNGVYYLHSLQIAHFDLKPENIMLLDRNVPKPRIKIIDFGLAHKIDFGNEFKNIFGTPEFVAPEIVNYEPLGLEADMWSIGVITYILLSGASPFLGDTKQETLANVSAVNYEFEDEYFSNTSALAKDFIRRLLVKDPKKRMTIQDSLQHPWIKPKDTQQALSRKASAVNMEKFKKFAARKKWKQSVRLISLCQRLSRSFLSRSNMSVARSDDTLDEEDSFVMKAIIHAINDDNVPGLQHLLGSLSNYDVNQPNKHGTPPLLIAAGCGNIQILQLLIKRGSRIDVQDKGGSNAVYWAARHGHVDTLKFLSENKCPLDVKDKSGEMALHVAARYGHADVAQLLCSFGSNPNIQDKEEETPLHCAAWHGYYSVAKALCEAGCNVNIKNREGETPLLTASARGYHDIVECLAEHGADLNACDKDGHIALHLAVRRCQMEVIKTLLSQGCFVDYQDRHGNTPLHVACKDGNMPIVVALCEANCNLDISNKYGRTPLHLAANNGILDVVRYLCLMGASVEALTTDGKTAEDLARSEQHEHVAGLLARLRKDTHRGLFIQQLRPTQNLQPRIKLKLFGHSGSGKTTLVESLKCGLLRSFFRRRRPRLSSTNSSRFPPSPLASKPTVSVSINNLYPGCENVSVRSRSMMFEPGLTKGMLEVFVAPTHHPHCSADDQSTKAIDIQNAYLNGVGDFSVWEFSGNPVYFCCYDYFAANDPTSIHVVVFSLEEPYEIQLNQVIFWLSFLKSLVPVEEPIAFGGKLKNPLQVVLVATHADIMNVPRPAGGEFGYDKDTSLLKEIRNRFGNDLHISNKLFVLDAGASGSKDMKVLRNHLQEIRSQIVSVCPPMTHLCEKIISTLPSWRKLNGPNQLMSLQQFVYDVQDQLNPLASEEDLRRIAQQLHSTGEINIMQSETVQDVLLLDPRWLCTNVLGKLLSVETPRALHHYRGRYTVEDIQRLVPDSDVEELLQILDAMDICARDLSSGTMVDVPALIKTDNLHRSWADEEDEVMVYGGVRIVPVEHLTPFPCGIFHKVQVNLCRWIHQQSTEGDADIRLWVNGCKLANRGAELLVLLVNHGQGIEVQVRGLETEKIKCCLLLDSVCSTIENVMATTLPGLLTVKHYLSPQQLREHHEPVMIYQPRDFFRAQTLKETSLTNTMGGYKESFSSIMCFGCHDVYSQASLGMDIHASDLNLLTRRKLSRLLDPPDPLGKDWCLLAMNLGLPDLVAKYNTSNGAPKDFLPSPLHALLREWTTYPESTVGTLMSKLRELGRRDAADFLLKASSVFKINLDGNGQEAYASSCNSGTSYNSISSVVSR

NEK2 = biological target: T2, NEK2 (Homo sapiens, UniProt P51955); conditions: NEK2;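 also: FDA-approved drugs chosen by structure-based repositioning, each screened at 10 or 1 µM for kinase activity, expressed as percent of DMSO controls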
T2 construct: purchased ReactionBiology
T2 sequence (P51955 1-445): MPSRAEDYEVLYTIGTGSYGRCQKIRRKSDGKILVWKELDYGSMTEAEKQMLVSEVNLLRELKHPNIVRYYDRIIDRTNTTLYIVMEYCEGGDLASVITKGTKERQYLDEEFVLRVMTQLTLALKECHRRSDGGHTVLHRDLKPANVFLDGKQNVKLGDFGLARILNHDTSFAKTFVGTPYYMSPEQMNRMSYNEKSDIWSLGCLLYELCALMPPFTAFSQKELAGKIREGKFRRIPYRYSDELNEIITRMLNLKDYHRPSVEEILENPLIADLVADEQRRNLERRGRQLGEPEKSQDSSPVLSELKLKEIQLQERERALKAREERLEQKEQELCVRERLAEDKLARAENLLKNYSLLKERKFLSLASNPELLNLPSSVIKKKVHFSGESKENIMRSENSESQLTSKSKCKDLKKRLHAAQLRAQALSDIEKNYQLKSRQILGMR

VEGFR2 = VEGFR2 (Homo sapiens, UniProt P35968); set-up: purchased ReactionBiology; conditions: VEGFR2; for % Enzyme Activity (relative to DMSO controls), Data 1: replicate Data 1; for % Enzyme Activity (relative to DMSO controls), Data 2: replicate Data 2;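 as to all read-outs here: VEGFR2 was one member of a ten-kinase screening panel testing marketed FDA-approved drugs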
Chain of VEGFR2 (P35968 20-1356): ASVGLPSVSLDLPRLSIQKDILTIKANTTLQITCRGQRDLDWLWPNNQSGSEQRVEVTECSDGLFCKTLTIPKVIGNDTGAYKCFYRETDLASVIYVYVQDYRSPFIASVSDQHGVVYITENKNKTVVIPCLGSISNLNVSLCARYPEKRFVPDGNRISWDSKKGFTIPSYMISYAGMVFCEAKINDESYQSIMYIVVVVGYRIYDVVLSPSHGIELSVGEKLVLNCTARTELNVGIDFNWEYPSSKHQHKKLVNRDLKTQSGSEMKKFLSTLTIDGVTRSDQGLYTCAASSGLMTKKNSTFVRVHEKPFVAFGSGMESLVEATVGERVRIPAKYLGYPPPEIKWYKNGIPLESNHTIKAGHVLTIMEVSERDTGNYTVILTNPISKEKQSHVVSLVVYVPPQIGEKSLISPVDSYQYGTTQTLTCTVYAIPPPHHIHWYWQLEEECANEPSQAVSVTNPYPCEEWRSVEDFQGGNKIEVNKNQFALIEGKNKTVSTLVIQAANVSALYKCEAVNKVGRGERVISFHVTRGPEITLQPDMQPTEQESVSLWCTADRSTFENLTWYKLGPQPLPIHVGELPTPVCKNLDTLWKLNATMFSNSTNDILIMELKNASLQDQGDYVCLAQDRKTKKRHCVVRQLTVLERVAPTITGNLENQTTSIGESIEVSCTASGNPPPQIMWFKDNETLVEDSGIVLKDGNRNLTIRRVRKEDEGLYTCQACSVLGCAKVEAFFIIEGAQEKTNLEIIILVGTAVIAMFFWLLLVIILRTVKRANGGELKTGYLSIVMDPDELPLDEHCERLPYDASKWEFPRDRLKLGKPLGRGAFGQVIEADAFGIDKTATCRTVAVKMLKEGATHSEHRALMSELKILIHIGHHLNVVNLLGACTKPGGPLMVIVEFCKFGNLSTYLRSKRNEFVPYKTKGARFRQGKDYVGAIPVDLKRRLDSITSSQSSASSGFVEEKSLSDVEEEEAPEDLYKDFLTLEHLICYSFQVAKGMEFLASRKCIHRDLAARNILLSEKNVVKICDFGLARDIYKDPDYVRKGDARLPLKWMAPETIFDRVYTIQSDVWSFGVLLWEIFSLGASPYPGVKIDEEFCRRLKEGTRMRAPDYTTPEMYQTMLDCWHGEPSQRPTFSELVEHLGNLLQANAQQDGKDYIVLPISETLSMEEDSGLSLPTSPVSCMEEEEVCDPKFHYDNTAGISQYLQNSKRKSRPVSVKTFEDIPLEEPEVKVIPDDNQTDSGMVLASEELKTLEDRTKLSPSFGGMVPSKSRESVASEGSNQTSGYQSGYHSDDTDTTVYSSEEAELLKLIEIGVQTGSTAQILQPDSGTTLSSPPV

CK1d = biological target: T3, CK1d (Homo sapiens, UniProt P48730); conditions: CK1d; for % Enzyme Activity (relative to DMSO controls), Data 1: replicate Data 1; for % Enzyme Activity (relative to DMSO controls), Data 2: replicate Data 2
T3 construct: purchased ReactionBiology
T3 sequence (P48730 whole entry): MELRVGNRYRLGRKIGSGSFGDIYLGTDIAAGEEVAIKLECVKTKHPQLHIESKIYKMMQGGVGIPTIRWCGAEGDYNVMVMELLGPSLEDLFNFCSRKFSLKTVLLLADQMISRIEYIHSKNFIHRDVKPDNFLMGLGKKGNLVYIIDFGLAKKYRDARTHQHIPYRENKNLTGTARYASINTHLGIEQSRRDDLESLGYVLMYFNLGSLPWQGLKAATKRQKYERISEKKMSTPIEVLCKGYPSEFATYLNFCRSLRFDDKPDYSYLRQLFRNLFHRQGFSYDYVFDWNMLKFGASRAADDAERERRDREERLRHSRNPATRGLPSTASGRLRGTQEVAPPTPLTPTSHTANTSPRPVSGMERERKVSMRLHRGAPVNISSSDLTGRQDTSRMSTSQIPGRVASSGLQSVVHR

[1] = compound at 1 uM, average of Data 1 and Data 2
[2] = compound at 10 uM, average of Data 1 and Data 2

SMILES: N[C@H]1C(O)O[C@H](CO)[C@@H](O)[C@@H]1O (some centres unmarked) [Glucosamine]
% Enzyme Activity (relative to DMSO controls), Average (DAPK1; 1 uM): 102.43% | % Enzyme Activity (relative to DMSO controls), Data 1 (DAPK1; 1 uM): 102.25% | % Enzyme Activity (relative to DMSO controls), Data 2 (DAPK1; 1 uM): 102.61% | % Enzyme Activity (relative to DMSO controls), Average (DAPK1; 10 uM): 123.43% | % Enzyme Activity (relative to DMSO controls), Data 1 (DAPK1; 10 uM): 142.72% | % Enzyme Activity (relative to DMSO controls), Data 2 (DAPK1; 10 uM): 104.13% | % Enzyme Activity (relative to DMSO controls), Average (NEK2; 1 uM, Average): 82.84% | % Enzyme Activity (relative to DMSO controls), Data 1 (NEK2; 1 uM, replicate Data 1): 79.92% | % Enzyme Activity (relative to DMSO controls), Data 2 (NEK2; 1 uM, replicate Data 2): 85.75% | % Enzyme Activity (relative to DMSO controls), Average (NEK2; 10 uM, Average): 95.78% | % Enzyme Activity (relative to DMSO controls), Data 1 (NEK2; 10 uM, replicate Data 1): 90.86% | % Enzyme Activity (relative to DMSO controls), Data 2 (NEK2; 10 uM, replicate Data 2): 100.69%

SMILES: Cc1ccc(C(=O)c2ccc(CC(=O)O)n2C)cc1 [Tolmetin]
% Enzyme Activity (relative to DMSO controls), Average (NEK2; [1]): 115.23% | % Enzyme Activity (relative to DMSO controls), Data 1 (NEK2; compound at 1 uM, replicate 1): 120.50% | % Enzyme Activity (relative to DMSO controls), Data 2 (NEK2; compound at 1 uM, replicate 2): 109.96% | % Enzyme Activity (relative to DMSO controls), Average (NEK2; [2]): 107.09% | % Enzyme Activity (relative to DMSO controls), Data 1 (NEK2; compound at 10 uM, replicate 1): 112.71% | % Enzyme Activity (relative to DMSO controls), Data 2 (NEK2; compound at 10 uM, replicate 2): 101.47%

SMILES: CC(=O)CCCCn1c(=O)c2c(ncn2C)n(C)c1=O [Pentoxifylline]
% Enzyme Activity (relative to DMSO controls), Average (NEK2; 1 uM, Average): 90.71% | % Enzyme Activity (relative to DMSO controls), Data 1 (NEK2; 1 uM, replicate Data 1): 91.06% | % Enzyme Activity (relative to DMSO controls), Data 2 (NEK2; 1 uM, replicate Data 2): 90.35% | % Enzyme Activity (relative to DMSO controls), Average (NEK2; 10 uM, Average): 88.11% | % Enzyme Activity (relative to DMSO controls), Data 1 (NEK2; 10 uM, replicate Data 1): 86.43% | % Enzyme Activity (relative to DMSO controls), Data 2 (NEK2; 10 uM, replicate Data 2): 89.78%

SMILES: NC[C@H]1CC[C@H](C(=O)O)CC1 [Tranexamic acid]
remaining activity at 1 µM (NEK2; 1 uM, Average, read-out: % Enzyme Activity (relative to DMSO controls), Average): 72.5% | remaining activity at 1 µM (NEK2; 1 uM, replicate Data 1, read-out: % Enzyme Activity (relative to DMSO controls), Data 1): 60.7% | remaining activity at 1 µM (NEK2; 1 uM, replicate Data 2, read-out: % Enzyme Activity (relative to DMSO controls), Data 2): 84.2% | remaining activity at 10 µM (NEK2; 10 uM, Average, read-out: % Enzyme Activity (relative to DMSO controls), Average): 85.3% | remaining activity at 10 µM (NEK2; 10 uM, replicate Data 1, read-out: % Enzyme Activity (relative to DMSO controls), Data 1): 72.1% | remaining activity at 10 µM (NEK2; 10 uM, replicate Data 2, read-out: % Enzyme Activity (relative to DMSO controls), Data 2): 98.5%

Further lines, results first:

% Enzyme Activity (relative to DMSO controls), Data 1 (VEGFR2; 1 uM): 112.59% | % Enzyme Activity (relative to DMSO controls), Data 1 (VEGFR2; 10 uM): 111.96% | % Enzyme Activity (relative to DMSO controls), Data 1 (NEK2; 1 uM, replicate Data 1): 95.77% | % Enzyme Activity (relative to DMSO controls), Data 1 (NEK2; 10 uM, replicate Data 1): 85.23% | % Enzyme Activity (relative to DMSO controls), Data 1 (CK1d; 1 uM): 107.72%
SMILES: CCCc1nn(C)c2c(=O)[nH]c(-c3cc(S(=O)(=O)N4CCN(C)CC4)ccc3OCC)nc12 [Sildenafil]

% Enzyme Activity (relative to DMSO controls), Average (VEGFR2; 1 uM): 107.43% | % Enzyme Activity (relative to DMSO controls), Data 1 (VEGFR2; 1 uM): 104.33% | % Enzyme Activity (relative to DMSO controls), Data 2 (VEGFR2; 1 uM): 110.52% | % Enzyme Activity (relative to DMSO controls), Average (VEGFR2; 10 uM): 102.76% | % Enzyme Activity (relative to DMSO controls), Data 1 (VEGFR2; 10 uM): 106.39% | % Enzyme Activity (relative to DMSO controls), Data 2 (VEGFR2; 10 uM): 99.13% | % Enzyme Activity (relative to DMSO controls), Average (NEK2; 1 uM, Average): 106.09% | % Enzyme Activity (relative to DMSO controls), Data 1 (NEK2; 1 uM, replicate Data 1): 107.69% | % Enzyme Activity (relative to DMSO controls), Data 2 (NEK2; 1 uM, replicate Data 2): 104.49% | % Enzyme Activity (relative to DMSO controls), Average (NEK2; 10 uM, Average): 102.63% | % Enzyme Activity (relative to DMSO controls), Data 1 (NEK2; 10 uM, replicate Data 1): 102.17% | % Enzyme Activity (relative to DMSO controls), Data 2 (NEK2; 10 uM, replicate Data 2): 103.08% | % Enzyme Activity (relative to DMSO controls), Average (CK1d; 1 uM): 93.71% | % Enzyme Activity (relative to DMSO controls), Data 1 (CK1d; 1 uM): 95.24% | % Enzyme Activity (relative to DMSO controls), Data 2 (CK1d; 1 uM): 92.18% | % Enzyme Activity (relative to DMSO controls), Average (CK1d; 10 uM): 84.36% | % Enzyme Activity (relative to DMSO controls), Data 1 (CK1d; 10 uM): 85.89% | % Enzyme Activity (relative to DMSO controls), Data 2 (CK1d; 10 uM): 82.82%
SMILES: CCc1nc(N)nc(N)c1-c1ccc(Cl)cc1 [Pyrimethamine]

% Enzyme Activity (relative to DMSO controls), Average (NEK2; [1]): 107.09% | % Enzyme Activity (relative to DMSO controls), Data 1 (NEK2; compound at 1 uM, replicate 1): 107.23% | % Enzyme Activity (relative to DMSO controls), Data 2 (NEK2; compound at 1 uM, replicate 2): 106.95% | % Enzyme Activity (relative to DMSO controls), Average (NEK2; [2]): 94.02% | % Enzyme Activity (relative to DMSO controls), Data 1 (NEK2; compound at 10 uM, replicate 1): 94.51% | % Enzyme Activity (relative to DMSO controls), Data 2 (NEK2; compound at 10 uM, replicate 2): 93.52%
SMILES: c1coc(CNc2ncnc3[nH]cnc23)c1 [Kinetin]
